Assay results: US20250084026A1, “NOVEL SALT OF 1-SULFONYL PYRROLE DERIVATIVE, PREPARATION METHOD THEREOF AND PHARMACEUTICAL COMPOSITION COMPRISING THEREOF” (ILDONG PHARMACEUTICAL CO., LTD., priority 2021, published 2025)
Values after ≈ are worked out from the molar mass of the structure shown. Where two headings read alike, the source gives them in different places.

Assays:
Format in all cases: physicochemical
[1] = Solubility in bio-relevant media (water, SGF, FaSSIF, FeSSIF), HPLC; conditions: for solubility at 1 h / solubility at 24 h: thermodynamic from solid; for solubility at 1 h: read-out: Solubility-1 h concentration; for solubility at 24 h: read-out: Solubility-24 h concentration
Protocol: Solubility in bio-relevant media, i.e., stimulated gastric fluid (SGF), fasted state simulated intestinal fluid (FaSSIF), and fed state simulated intestinal fluid (FeSSIF) of the free base and the fumarate salt of 1-(5-(2-fluorophenyl)-4-methoxy-1-((6-methoxypyridin-3-yl) sulfonyl)-1H-pyrrole-3-yl)-N-methylmethanamine that was confirmed through the salt screening analysis result, was confirmed.
Buffers for the bio-relevant media were prepared as follows. • Water: Laboratory Milli-Q purified water. • SGF (Stimulated Gastric Fluid): 2.0 g of sodium chloride and 7 mL of hydrochloric acid dissolved in 1000 ml of water was used. • FaSSIF (Fasted State Simulated Intestinal Fluid): A commercial product purchased from Bio-Relevant Company and manufactured according to instructions was used. • FeSSIF (Fed State Simulated Intestinal Fluid): A commercial product purchased from Bio-Relevant Company and prepared according to instructions was used.
For the experiment, about 10 mg of compound (10 mg as free base form) was weighed into each glass vial and then 1 mL of medium was added (final concentration of 10 mg/mL). Then, the sample was continuously stirred in a magnetic stirrer at 37° C. at a speed of 200 rpm. After stirring for 1 hour and 24 hours, 0.5 mL of the sample solution was transferred to a 1.5 mL centrifuge tube and centrifuged at 12,000 rpm for 5 minutes. The supernatant was diluted with suitable methanol and analyzed by HPLC.
The free base was selected as a standard sample to quantify the solubility, and about 10 mg of the free base was weighed into a 25 mL flask and dissolved in methanol to the curve.
The residue of the compound in water was tested by XRPD to determine the solid state.

[2] = Drug stability under stress condition, 60° C. open, XRPD and HPLC; conditions: for HPLC peak RT 7.423 min, RRT 0.74 / HPLC peak RT 10.063 min, RRT 1.00 / HPLC peak RT 10.277 min, RRT 1.02: in %; for Stability under harsh conditions (in words): up to Week 2
Protocol: 10 mg and 40 mg of the free base and the fumaric acid salt of 1-(5-(2-fluorophenyl)-4-methoxy-1-((6-methoxypyridin-3-yl) sulfonyl)-1H-pyrrol-3-yl)-N-methylmethanamine were weighed into each vial and stored under stress conditions to investigate stability.
The stress conditions are as follows: • high temperature open room condition: 60° C.; • The bottle neck of the vial was wrapped with aluminum foil with pinholes to avoid contamination, and the samples were analyzed by XRPD and HPLC at the onset (Day 0), week 1 and week 2.

[3] = Dynamic vapor sorption (DVS) hygroscopicity; conditions: 25° C., 0%~95%~0% RH cycle; compared to the known hygroscopicity evaluation standard
Protocol: Using DVS intrinsic manufactured by Surface Measurement Systems Ltd, about 20 mg of the sample was tested for water sorption/desorption profiles at 25° C. under a 0%˜95%˜0% relative humidity (RH) cycle using the following parameters.
Equilibrium: dm/dt: 0.01%/min.
Range of RH (%) measurement step: 0%˜95%˜0%; RH (%) measurement step: 5%

[4] = Drug stability at 40° C., 75% RH for 8 weeks (XRPD, TGA, HPLC)
Protocol: In order to confirm the stability of the fumarate salt of 1-(5-(2-fluorophenyl)-4-methoxy-1-((6-methoxypyridin-3-yl) sulfonyl)-1H-pyrrole-3-yl)-N-methylmethanamine prepared under an isopropyl alcohol solvent, water sorption and/or hydrate formation were confirmed under conditions of 75% RH at 40° C. for 8 weeks.
To proceed with the experiment, 100 mg of the fumarate salt of 1-(5-(2-fluorophenyl)-4-methoxy-1-((6-methoxypyridin-3-yl) sulfonyl)-1H-pyrrole-3-yl)-N-methylmethanamine was put in a vial with a wide mouth (Experimental group 1), and the other sample was put in a vial that is double-packed with a polyethylene bag (Experimental group 2). Then, both samples were placed inside a 40° C., 75% RH chamber and monitored at 2-week intervals.
The XRPD values were checked every two weeks to identify whether or not there was a change in the crystalline form, and the results are shown in Table 11.

[5] = Thermal gravimetric analysis (TGA) weight loss
Protocol: Using Pyris 1 TGA manufactured by PerkinElmer, Inc., a compound sample (about 5 mg) was weighed in pans under nitrogen purge at a ramp rate of 20° C./min over the range of 30 to 300° C.

[6] = Week 2, 4, 6 and 8, Experimental groups 1 and 2

CNCc1cn(S(=O)(=O)c2ccc(OC)nc2)c(-c2ccccc2F)c1OC [Free base, 1-(5-(2-fluorophenyl)-4-methoxy-1-((6-methoxypyridin-3-yl)sulfonyl)-1H-pyrrol-3-yl)-N-methylmethanamine]
Solubility-24 h concentration ([1]; water, 37° C., 24 h): 8630 µg/mL (≈ 21.3 mM) | % Impurities ([2]; 60° C., Week 1): 20.94% | Assay % ([2]; 60° C., Week 1): 67.44% | Crystalline form (XRPD) ([2]; 60° C., Week 1): Melted | HPLC peak RT 6.797 min, RRT 0.68 ([2]; 60° C., Week 1): 0.43% | HPLC peak RT 7.563 min, RRT 0.75 ([2]; 60° C., Week 1): 1% | HPLC peak RT 9.327 min, RRT 0.93 ([2]; 60° C., Week 1): 0.18% | HPLC peak RT 10.813 min, RRT 1.07 ([2]; 60° C., Week 1): 0.57% | HPLC peak RT 7.423 min, RRT 0.74 ([2]; 60° C., Week 1): 18.86 | HPLC peak RT 10.063 min, RRT 1.00 ([2]; 60° C., Week 1): 79.06 | HPLC peak RT 10.277 min, RRT 1.02 ([2]; 60° C., Week 1): 9.95 | % Impurities ([2]; 60° C., Week 2): 35.00% | Assay % ([2]; 60° C., Week 2): 60.29% | Crystalline form (XRPD) ([2]; 60° C., Week 2): Melted | HPLC peak RT 6.797 min, RRT 0.68 ([2]; 60° C., Week 2): 0.31% | HPLC peak RT 7.563 min, RRT 0.75 ([2]; 60° C., Week 2): 4.12% | HPLC peak RT 9.327 min, RRT 0.93 ([2]; 60° C., Week 2): 0.14% | HPLC peak RT 10.813 min, RRT 1.07 ([2]; 60° C., Week 2): 0.53% | HPLC peak RT 7.423 min, RRT 0.74 ([2]; 60° C., Week 2): 13.51 | HPLC peak RT 10.063 min, RRT 1.00 ([2]; 60° C., Week 2): 65.0 | HPLC peak RT 10.277 min, RRT 1.02 ([2]; 60° C., Week 2): 16.38 | Stability under harsh conditions (in words) ([2]; 60° C.): high impurity content | % Impurities ([2]; Day 0): 0.85% | Assay % ([2]; Day 0): 100.00% | Crystalline form (XRPD) ([2]; Day 0): Free form | HPLC peak RT 9.327 min, RRT 0.93 ([2]; Day 0): 0.18% | HPLC peak RT 10.813 min, RRT 1.07 ([2]; Day 0): 0.66% | HPLC peak RT 10.063 min, RRT 1.00 ([2]; Day 0): 99.15

CNCc1cn(S(=O)(=O)c2ccc(OC)nc2)c(-c2ccccc2F)c1OC.O=C(O)/C=C/C(=O)O [Fumarate salt, fumarate salt of 1-(5-(2-fluorophenyl)-4-methoxy-1-((6-methoxypyridin-3-yl)sulfonyl)-1H-pyrrole-3-yl)-N-methylmethanamine]
Solubility (in words) ([1]; all of SGF, FaSSIF, and FeSSIF): excellent solubility | Solubility (in words) ([1]; fasted state simulated intestinal fluid (FaSSIF)): very good solubility | solubility at 1 h ([1]; simulated gastric fluid, SGF, 37° C.): > 10000 µg/mL | solubility at 24 h ([1]; simulated gastric fluid, SGF, 37° C., 24 h): > 10000 µg/mL | solubility at 1 h ([1]; FaSSIF, 37° C.): 7910 µg/mL | solubility at 24 h ([1]; FaSSIF, 37° C., 24 h): 7580 µg/mL | solubility at 1 h ([1]; FeSSIF, 37° C.): 4500 µg/mL | solubility at 24 h ([1]; FeSSIF, 37° C., 24 h): 4440 µg/mL | solubility at 1 h ([1]; water, 37° C.): 6390 µg/mL | solubility at 24 h ([1]; water, 37° C., 24 h): 5320 µg/mL | Hygroscopicity (DVS, in words) [3]: very low hygroscopicity | Polymorphic change vs initial XRPD of crystalline Form I ([4]; 8 weeks): no polymorphic change | Whether or not XRPD value changed ([4]; Experimental group 1 (vial with a wide mouth), Week 2): Same | Whether or not XRPD value changed ([4]; Experimental group 1 (vial with a wide mouth), Week 2 (second line so printed, r7)): Same | Whether or not XRPD value changed ([4]; Experimental group 1 (vial with a wide mouth), Week 6): Same | Whether or not XRPD value changed ([4]; Experimental group 1 (vial with a wide mouth), Week 8): Same | Whether or not XRPD value changed ([4]; Experimental group 2 (vial double-packed with polyethylene bag), Week 2): Same | Whether or not XRPD value changed ([4]; Experimental group 2 (vial double-packed with polyethylene bag), Week 2 (second line so printed, r7)): Same | Whether or not XRPD value changed ([4]; Experimental group 2 (vial double-packed with polyethylene bag), Week 6): Same | Whether or not XRPD value changed ([4]; Experimental group 2 (vial double-packed with polyethylene bag), Week 8): Same | Hygroscopicity (TGA analysis, in words) [4, 6]: significantly low hygroscopicity | Purity (HPLC analysis, in words) [4, 6]: high purity | TGA weight loss (% w/w) ([5]; 120° C., listed as Example 3): ~0.0307%, | % Impurities ([2]; 60° C., Week 1): 0.76% | Assay % ([2]; 60° C., Week 1): 105.69% | Crystalline form (XRPD) ([2]; 60° C., Week 1): Crystalline | HPLC peak RT 9.327 min, RRT 0.93 ([2]; 60° C., Week 1): 0.17% | HPLC peak RT 10.813 min, RRT 1.07 ([2]; 60° C., Week 1): 0.59% | HPLC peak RT 10.063 min, RRT 1.00 ([2]; 60° C., Week 1): 99.24 | % Impurities ([2]; 60° C., Week 2): 0.80% | Assay % ([2]; 60° C., Week 2): 94.74% | Crystalline form (XRPD) ([2]; 60° C., Week 2): Crystalline | HPLC peak RT 9.327 min, RRT 0.93 ([2]; 60° C., Week 2): 0.18% | HPLC peak RT 10.813 min, RRT 1.07 ([2]; 60° C., Week 2): 0.62% | HPLC peak RT 10.063 min, RRT 1.00 ([2]; 60° C., Week 2): 99.20 | Stability under harsh conditions (in words) ([2]; 60° C.): excellent stability | % Impurities ([2]; Day 0): 0.77% | Assay % ([2]; Day 0): 100.00% | Crystalline form (XRPD) ([2]; Day 0): Crystalline | HPLC peak RT 9.327 min, RRT 0.93 ([2]; Day 0): 0.17% | HPLC peak RT 10.813 min, RRT 1.07 ([2]; Day 0): 0.6% | HPLC peak RT 10.063 min, RRT 1.00 ([2]; Day 0): 99.23

CNCc1cn(S(=O)(=O)c2ccc(OC)nc2)c(-c2ccccc2F)c1OC.O=P(O)(O)O [phosphate salt, Phosphate Salt of 1-(5-(2-fluorophenyl)-4-methoxy-1-((6-methoxypyridin-3-yl)sulfonyl)-1H-pyrrol-3-yl)-N-methylmethanamine]
Hygroscopicity (from TGA, in words) [5]: high hygroscopicity | TGA weight loss [5]: 1.0189%
